Assay results as given in US20090099243A1, “ORGANIC COMPOUNDS” (priority 2007, published 2009).
Values belong to the molecule of their own block, whether it stands above or below them.

What was measured:
[1] = molecular target: T1, recombinant human NPY Y2 receptors (Homo sapiens, UniProt P49146); experiment: Scintillation proximity [35S]GTPγS binding assay (inhibition of 0.5 nM NPY-stimulated [35S]GTPγS binding); type: biochemical; conditions: 10 μM compound, CHO-C4 membranes; for inhibition at 10 µM: read-out: [%] inhibiton at 10 μM
T1 construct: expressed in transfected cells; host or cells: CHO-C4 cells (membrane preparation)
T1 sequence (P49146 1-381): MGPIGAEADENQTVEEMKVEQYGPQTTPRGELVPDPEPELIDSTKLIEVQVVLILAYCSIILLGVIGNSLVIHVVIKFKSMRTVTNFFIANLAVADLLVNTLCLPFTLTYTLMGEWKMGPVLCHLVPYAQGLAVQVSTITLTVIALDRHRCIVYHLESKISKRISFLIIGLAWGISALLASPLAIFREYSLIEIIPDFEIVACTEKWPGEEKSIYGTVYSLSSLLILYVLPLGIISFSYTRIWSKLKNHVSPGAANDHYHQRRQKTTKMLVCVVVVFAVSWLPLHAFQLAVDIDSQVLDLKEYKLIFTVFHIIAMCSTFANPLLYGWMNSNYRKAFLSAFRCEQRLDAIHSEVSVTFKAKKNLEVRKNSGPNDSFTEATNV
Experimental: Preparation of Membranes: CHO—C4 cells expressing recombinant human NPY Y2 receptors were used to prepare membranes for the GTPγS assay. Cells were grown to 80-95% confluency on 15-cm (225 cm^2) tissue culture plates. After aspiration of the culture medium, cells were washed twice with 18 ml ice-cold phosphate-buffered saline (PBS), scraped off and suspended in 3 ml ice-cold PBS in pre-cooled centrifuge tubes. The dishes were rinsed with 2 ml ice-cold PBS per dish and the washings were combined with the PBS cell suspension from above. Cells pooled from 5-7 dishes were centrifuged for 5 min at 10,000 rpm (12,000 g) in a Sorvall RC5B centrifuge using an SS34 rotor at 4° C. The cell pellet was resuspended in 5 ml ice-cold buffer (20 mM HEPES, 10 mM EDTA; pH 7.4) by vortexing (2-5 sec), homogenized using a Polytron (step 4 for 20-30 sec), and ice-cold buffer added to 25 ml. The suspension was centrifuged again for 20 min at 18,000 rpm (39,000 g) at 4° C. and the pellet resuspended in 5 ml ice-cold buffer (20 mM HEPES, 0.1 mM EDTA; pH 7.4) by vortexing (2-5 sec), homogenized with a Polytron (step 4 for 10 sec), and ice-cold buffer added to 25 ml. The suspension was centrifuged a third time for 20 min at 18,000 rpm (39,000 g) at 4° C. The pellet was resuspend in 1 ml ice-cold buffer (20 mM Hepes, 0.1 mM EDTA; pH 7.4) by vortexing (5-8 sec). Two to five resuspended pellets were combined and homogenized using a Polytron (step 4 for 15-25 sec). A small aliquot (20-50 μl) was removed for protein determination by the Coomassie Plus Protein Assay Reagent (Pierce) using BSA as standard. The membrane suspension was aliquoted in pre-cooled (on dry ice) Eppendorf tubes (0.25-1 ml/tube affording approximately 0.5-2 mg of membrane protein/tube). The pellets were frozen and stored at −80° C.
Scintillation proximity [^35S]GTPγS binding assay: Frozen membranes from CHO—C4 cells expressing recombinant human NPY Y2 receptors (2 mg for four 96-well plates) were thawed on ice. Thawed membranes were pipetted into 10 ml of assay buffer (20 mM. HEPES, 10 mM MgCl2, 100 mM NaCl, pH 7.4) and homogenized briefly using a Polytron. The final assay mixture was prepared in 96-well microtiter plates (Isoplate Wallac, Perkin Elmer). The composition of the assay mixtures in a final volume of 250 μl per well was as follows: 20 mM HEPES, 10 mM MgCl2, 100 mM NaCl, pH 7.4, 30 μM GDP, 1 mg/ml BSA (added fresh), 5 μg membrane protein, 1.5 mg Wheatgerm agglutinin SPA beads (Amersham), 0.45 nM [^35S]GTPγS (Amersham, SJ1308, 1000 Ci/mmol, stabilized solution), and the test compounds (agonists and/or antagonists) at the appropriate concentrations. The samples were incubated at room temperature for 90 min by shaking, after which the SPA beads were sedimented by centrifugation in an Eppendorf 5804 centrifuge at 2700 rpm for 10 min at room temperature. After 60 min the plates were counted in a TopCount (Canberra). Basal [^35S]GTPγS binding was measured in the absence of agonist (NPY). Non-specific binding was measured in the presence of excess (10 μM) unlabelled GTPγS (Sigma). Nonspecific binding never exceeded 10% of basal binding and was thus not subtracted from the experimental data. Antagonists were tested for the inhibition of 0.5 nM NPY-stimulated [^35S]GTPγS binding. Antagonist inhibition curves were analyzed by non-linear regression using GraphPad Prism software (Version 4.0, GraphPad Software Inc., CA, USA).
Antagonistic activity of compounds of the present invention was examined by the Scintillation proximity [35S]GTPγS binding assay as described above (inhibition of 0.5 nM NPY-stimulated [^35S]GTPγS binding). The table below represents percentages of inhibition at a concentration of 10 μM.

[2] = test system: normal gastric emptying in mice; experiment: Normal gastric emptying in mice by Near Infrared FluoRescent (NIRF) imaging; type: in vivo, C57/BI6 mice; conditions: imaging 15 minutes after gavage, vehicle control 70%
Experimental: The effect of Example 33, (−)-1-(3,5-Dimethyl-isoxazol-4-yl)-3-{4-[2-(S)-2,5-dioxo-4-phenyl-4-propyl-imidazolidin-1-yl)-acetyl]-3-fluoro-phenyl}-urea, on normal gastric emptying in mice is assessed by means of Near Infrared FluoRescent (NIRF) imaging. The NIRF method is described in detail in the publication by Gremlich et al (J. Mol. Imaging, 2004, 3(4), 303-311). In short, C57/BI6 mice are gavaged 0.2 ml test meal (Isosource Standard meal, Novartis Medical Nutrition, Germany) that contains 7.5 g methylcellulose and 5 g Tentagel fluorescent beads (TentaGel MB-NH2, particle size […], capacity 0.2-0.3 mmol/g; Rapp Polymere, Tubingen, Germany) per 100 ml and immediately returned to their cages. 15 minutes after the gavage mice are anaesthetized using isoflurane and prepared for NIRF imaging. Images from the gastric and intestinal areas are taken and the percentage of food emptied from the stomach is calculated as the ratio of fluorescence measured in the intestines and the stomach. Example 33 was dissolved in 1-methyl-2-pyrrolidon, polyethyleenglycol-300 and 5% dextrose solution (w/v) in the following proportion (v/v): 10%, 30% and 60% respectively and injected intraperitoneally 30 minutes before the administration of the test meal. In the vehicle control group (n=6), 70% of the meal was emptied from the stomach.

[3] = test system: ethanol self-administration in rats; conditions: icv administration; cited from earlier work

- inhibition at 10 µM [1]: 95%
SMILES: CCC[C@@]1(c2ccccc2)NC(=O)N(CC(=O)c2ccc(NC(=O)Nc3c(C)noc3C)cc2F)C1=O [Example 33, (−)-1-(3,5-Dimethyl-isoxazol-4-yl)-3-{4-[2-((S)-2,5-dioxo-4-phenyl-4-propyl-imidazolidin-1-yl)-acetyl]-3-fluoro-phenyl}-urea]
- percentage of the meal emptied from the stomach ([2]; 0.3 mg/kg intraperitoneally 30 minutes before test meal): 80%
- percentage of the meal emptied from the stomach ([2]; 1 mg/kg intraperitoneally 30 minutes before test meal): 81%

- [%] inhibiton at 10 μM [1]: 98%
SMILES: Cc1noc(C)c1NC(=O)Nc1ccc(C(=O)CN2C(=O)NC(c3ccccc3)(c3ccccc3)C2=O)c(F)c1 [Example 28, 1-(3,5-Dimethyl-isoxazolyl-4-yl)-3-{4-[2-(2,5-dioxo-4,4-diphenyl-imidazolidin-1-yl)-acetyl]-3-fluoro-phenyl}-urea]

The remaining lines, values behind:

SMILES: Cc1ccc(C2(c3ccccc3)NC(=O)N(CC(O)c3ccc(NC(=O)CC(C)C)cc3)C2=O)cc1 (racemic) [Example 14, (±)-N-{4-[2-(2,5-Dioxo-4-phenyl-4-p-tolyl-imidazolidin-1-yl)-1-hydroxy-ethyl]-phenyl}-3-methyl-butyramide]
- inhibition at 10 µM [1]: 58%

SMILES: CCC(CC)C(=O)Nc1ccc(C(=O)CN2C(=O)NC(c3ccccc3)(c3ccccc3)C2=O)c(F)c1 [Example 34, N-{4-[2-(2,5-Dioxo-4,4-diphenyl-imidazolidin-1-yl)-acetyl]-3-fluoro-phenyl}-2-ethyl-butyramide]
- inhibition at 10 µM [1]: 90%

SMILES: N=C(N)NCCC[C@H](NC(=O)CC1(CC(=O)N2CCN(C3c4ccccc4NC(=O)c4ccccc43)CC2)CCCC1)C(=O)NCCn1c(=O)n(-c2ccccc2)n(-c2ccccc2)c1=O (stereo partly shown) [BIIE0246]
- effect on ethanol self-administration [3]: dose dependently reduced ethanol self-administration
